Values after ≈ are worked out from the molar mass of the structure shown.
How the values were obtained:
[1] = tested on: uninfected Vero E6 cells; settings: lower dilutions (<50 μM dantrolene), without virus
[2] = tested on: SARS-CoV-2; experiment: Virus neutralization (VN) assay, scoring SARS-CoV-2 cytopathic effects (CPE) in Vero E6 cells; type: cell-based; settings: for Day 2 Read (CPE) / Day 4 Read (CPE) / Day 6 Read (CPE): triplicate wells
[3] = 20 μM dantrolene (as […]), […], Vero E6 cells
[4] = 30 μM dantrolene (as […]), […], Vero E6 cells
[5] = 40 μM dantrolene (as […]), […], Vero E6 cells

SMILES: O=C1CN(/N=C/c2ccc(-c3ccc([N+](=O)[O-])cc3)o2)C(O)=N1 [dantrolene]
- cell viability of uninfected Vero E6 cells [1]: good cell viability
- Day 2 Read (CPE) [2, 3]: 3/3 wells had No CPE
- Day 4 Read (CPE) [2, 3]: 3/3 wells had No CPE
- Day 6 Read (CPE) [2, 3]: 3/3 wells had No CPE
- Day 2 Read (CPE) [2, 4]: 3/3 wells had No CPE
- Day 4 Read (CPE) [2, 4]: 3/3 wells had No CPE
- Day 6 Read (CPE) [2, 4]: 3/3 wells had No CPE
- Day 2 Read (CPE) [2, 5]: 3/3 wells had No CPE
- Day 4 Read (CPE) [2, 5]: 3/3 wells had No CPE
- Day 6 Read (CPE) [2, 5]: 3/3 wells had No CPE
- Day 6 Read (CPE) ([2]; 100 μM dantrolene (as […]), […], Vero E6 cells): 3/3 wells had >90%
- CPE ([2]; 20-40 μM of dantrolene, […]): no CPE was observed
- cytopathic effects (indicating virus growth) ([2]; 20 and 40 μM dantrolene, all timepoints): No cytopathic effects
- MIC ([2]; Severe acute respiratory syndrome coronavirus 2, no CPE across all time points (Days 2, 4, 6), Vero E6 cells, read-out: minimum inhibitory concentration): 20 µM (≈ 6.29 µg/mL)
- anti-viral activity ([2]; lower concentrations of 10 and 5 μM): showed anti-viral activity
